Tests used:
Assay type in all cases: in vivo
corn (Zea mays) = test: Test A greenhouse herbicide test, pre- and postemergence; conditions: Postemergence
Procedure, shortened: (§1)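 Visual injury ratings, 0 (no effect) to 100 (complete control), versus untreated plants after roughly 10 d in a greenhouse. Compounds, formulated in a surfactant-containing non-phytotoxic solvent, were sprayed on loam–sand soil after sowing (pre) or on one- to two-leaf plants 2–10 cm tall (post).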

[1] = tested on: pigweed (Amaranthus retroflexus); test: as above
Procedure, shortened: as §1

[2] = tested on: ragweed (common ragweed, Ambrosia elatior); test: as above
Procedure, shortened: as §1

[3] = tested on: wheat (Triticum aestivum); test: as above; conditions: Postemergence
Procedure, shortened: as §1

kochia (Kochia scoparia) = test: as above
Procedure, shortened: as §1

[4] = tested on: foxtail, giant (giant foxtail, Setaria faberii); test: as above
Procedure, shortened: as §1

[5] = tested on: ryegrass, Italian (Italian ryegrass, Lolium multiflorum); test: as above
Procedure, shortened: as §1

[6] = tested on: ragweed (common ragweed, Ambrosia elatior); test: Test C greenhouse herbicide test, pre- and postemergence
Procedure, shortened: (§2)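 Greenhouse pots; pre-em on seeded loam:sand blend, post-em on 2–18 cm plants (1–4 leaf) in sphagnum peat/vermiculite medium. Formulation: non-phytotoxic solvent + surfactant. Read-out: visual % control (0–100) vs controls at 13–15 d.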

[7] = tested on: oilseed rape (Brassica napus); test: as above
Procedure, shortened: as §2

[8] = tested on: johnsongrass (Sorghum halepense); test: as above
Procedure, shortened: as §2

[9] = 125 g ai/ha, 0 to 100 scale where 0 is no effect and 100 is complete control
[10] = 500 g ai/ha, visual rating after approx. 10 d, 0 to 100 scale (0 no effect, 100 complete control)
[11] = Postemergence, 125 g ai/ha, 0 to 100 scale where 0 is no effect and 100 is complete control
[12] = Postemergence, 500 g ai/ha, visual rating after approx. 10 d, 0 to 100 scale (0 no effect, 100 complete control)
[13] = Preemergence, 125 g ai/ha, 0 to 100 scale where 0 is no effect and 100 is complete control
[14] = Preemergence, 500 g ai/ha, 0 to 100 scale where 0 is no effect and 100 is complete control
[15] = Postemergence, 31 g ai/ha, scale 0 to 100 (0 no effect, 100 complete control)
[16] = Postemergence, 125 g ai/ha, scale 0 to 100, 0 is no effect, 100 is complete control
[17] = Postemergence, 250 g ai/ha, scale 0 to 100, 0 no effect, 100 complete control, 13 to 15 d
[18] = Preemergence, 31 g ai/ha, scale 0 to 100, 0 is no effect, 100 is complete control
[19] = Preemergence, 62 g ai/ha, scale 0 to 100, 0 is no effect, 100 is complete control
[20] = Preemergence, 125 g ai/ha, scale 0 to 100, 0 is no effect, 100 is complete control
[21] = Preemergence, 250 g ai/ha, scale 0 to 100, 0 no effect, 100 complete control
[22] = 125 g ai/ha, visual rating after approx. 10 d, 0 to 100 scale (0 no effect, 100 complete control)
[23] = 500 g ai/ha, 0 to 100 scale, 0 is no effect, 100 is complete control
[24] = Postemergence, 125 g ai/ha, visual rating after approx. 10 d, 0 to 100 scale (0 no effect, 100 complete control)
[25] = Postemergence, 500 g ai/ha, 0 to 100 scale, 0 is no effect, 100 is complete control
[26] = Preemergence, 500 g ai/ha, 0 to 100 scale, 0 no effect, 100 complete control
[27] = Postemergence, 31 g ai/ha, 0 to 100 scale (0 no effect, 100 complete control)
[28] = postemergence, 62 g ai/ha, scale 0 to 100, 0 no effect, 100 complete control

CCCC(=O)Oc1c(C)nn(C)c(=O)c1-c1c(C)sc2ccc(C)cc12 [Compound 105]
Plant response rating, Corn (corn (Zea mays); [9]): 0 | Plant response rating, Corn (corn (Zea mays); [10]): 30 | Plant response rating, Pigweed [1, 11]: 90 | Plant response rating, Pigweed [1, 12]: 90 | Pigweed plant response rating [1, 13]: 100 | Plant response rating, Pigweed [1, 14]: 100 | Plant response rating, Ragweed [2, 11]: 90 | Plant response rating, Ragweed [2, 12]: 100 | Ragweed plant response rating [2, 13]: 100 | Plant response rating, Ragweed [2, 14]: 100 | Plant response rating, Wheat [3, 9]: 0 | Plant response rating, Wheat [3, 10]: 20 | Plant response rating, Kochia (kochia (Kochia scoparia); [11]): 90 | Plant response rating, Kochia (kochia (Kochia scoparia); [12]): 90 | Kochia plant response rating (kochia (Kochia scoparia); [13]): 100 | Plant response rating, Kochia (kochia (Kochia scoparia); [14]): 100 | Plant response rating, Foxtail, Giant [4, 11]: 70 | Plant response rating, Foxtail, Giant [4, 12]: 90 | Foxtail, Giant plant response rating [4, 13]: 90 | Plant response rating, Foxtail, Giant [4, 14]: 100 | Plant response rating, Ryegrass, Italian [5, 11]: 100 | Plant response rating, Ryegrass, Italian [5, 12]: 100 | Ryegrass, Italian plant response rating [5, 13]: 100 | Plant response rating, Ryegrass, Italian [5, 14]: 100 | Plant response rating, Ragweed [6, 15]: 90 | Plant response rating, Ragweed [6, 16]: 98 | Plant response rating, Ragweed [6, 17]: 100 | Plant response rating, Ragweed [6, 18]: 90 | Plant response rating, Ragweed [6, 19]: 90 | Plant response rating, Ragweed [6, 20]: 98 | Ragweed plant response rating [6, 21]: 100 | Plant response rating, Oilseed Rape [7, 15]: 5 | Plant response rating, Oilseed Rape [7, 16]: 60 | Plant response rating, Oilseed Rape [7, 17]: 75 | Plant response rating, Oilseed Rape [7, 18]: 0 | Plant response rating, Oilseed Rape [7, 19]: 5 | Plant response rating, Oilseed Rape [7, 20]: 10 | Oilseed Rape plant response rating [7, 21]: 10 | Plant response rating, Johnsongrass [8, 15]: 5 | Plant response rating, Johnsongrass [8, 16]: 0 | Plant response rating, Johnsongrass [8, 17]: 0 | Plant response rating, Johnsongrass [8, 18]: 10 | Plant response rating, Johnsongrass [8, 19]: 20 | Plant response rating, Johnsongrass [8, 20]: 20 | Johnsongrass plant response rating [8, 21]: 60

Cn1nc(Br)c(O)c(-c2cccc3ccccc23)c1=O [Compound 20]
Plant response rating, Corn (corn (Zea mays); [22]): 20 | Corn plant response rating (corn (Zea mays); [23]): 30 | Plant response rating, Pigweed [1, 24]: 100 | Pigweed plant response rating [1, 25]: 100 | Pigweed plant response rating [1, 13]: 80 | Plant response rating, Pigweed [1, 26]: 100 | Plant response rating, Ragweed [2, 24]: 80 | Ragweed plant response rating [2, 25]: 100 | Ragweed plant response rating [2, 13]: 30 | Plant response rating, Ragweed [2, 26]: 90 | Plant response rating, Wheat [3, 22]: 20 | Wheat plant response rating [3, 23]: 30 | Plant response rating, Kochia (kochia (Kochia scoparia); [24]): 90 | Kochia plant response rating (kochia (Kochia scoparia); [25]): 100 | Kochia plant response rating (kochia (Kochia scoparia); [13]): 80 | Plant response rating, Kochia (kochia (Kochia scoparia); [26]): 100 | Plant response rating, Foxtail, Giant [4, 24]: 30 | Foxtail, Giant plant response rating [4, 25]: 100 | Foxtail, Giant plant response rating [4, 13]: 40 | Plant response rating, Foxtail, Giant [4, 26]: 90 | Plant response rating, Ryegrass, Italian [5, 24]: 100 | Ryegrass, Italian plant response rating [5, 25]: 100 | Ryegrass, Italian plant response rating [5, 13]: 90 | Plant response rating, Ryegrass, Italian [5, 26]: 100 | Ragweed plant response rating [6, 27]: 80 | Plant response rating, Ragweed [6, 16]: 95 | Plant response rating, Ragweed [6, 17]: 100 | Plant response rating, Ragweed [6, 18]: 35 | Plant response rating, Ragweed [6, 19]: 45 | Plant response rating, Ragweed [6, 20]: 70 | Ragweed plant response rating [6, 21]: 75 | Ragweed plant response rating [6, 28]: 85 | Oilseed Rape plant response rating [7, 27]: 0 | Plant response rating, Oilseed Rape [7, 16]: 5 | Plant response rating, Oilseed Rape [7, 17]: 25 | Plant response rating, Oilseed Rape [7, 18]: 0 | Plant response rating, Oilseed Rape [7, 19]: 0 | Plant response rating, Oilseed Rape [7, 20]: 0 | Oilseed Rape plant response rating [7, 21]: 20 | Oilseed Rape plant response rating [7, 28]: 0 | Johnsongrass plant response rating [8, 27]: 5 | Plant response rating, Johnsongrass [8, 16]: 10 | Plant response rating, Johnsongrass [8, 17]: 10 | Plant response rating, Johnsongrass [8, 18]: 0 | Plant response rating, Johnsongrass [8, 19]: 0 | Plant response rating, Johnsongrass [8, 20]: 0 | Johnsongrass plant response rating [8, 21]: 10 | Johnsongrass plant response rating [8, 28]: 10
